From patent US11433045B2, “Treatment of metabolic disorders in canine animals” (Boehringer Ingelheim Vetmedica GmbH, priority 2014, dated 2022)

Details: various environmental conditions and during production of a medicament

N#Cc1ccc([C@@H]2O[C@H](CO)[C@@H](O)[C@H](O)[C@H]2O)cc1Cc1ccc(C2CC2)cc1.O=C(O)[C@@H]1CCCN1
physical and chemical stability: high physical and chemical stability
